The record followed here is a melting point compilation (Tetko et al.; mined from patent text by program, amines drawn as free bases though some values may be those of a salt).

What is called melting point is the temperature of the solid-liquid transition. `COc1cccc(NC(=O)c2sccc2S(=O)(=O)Nc2onc(C)c2Br)c1` showed a melting point of 200 to 202 °C.
The molecule `CC1(c2ccc(F)c(S(N)(=O)=O)c2)OCCO1` yielded a melting point of 149 to 150 °C.
In the case of `Cc1cc([C@@H]2CCC(=O)N2)on1`, the melting point lay within 90 to 91 °C.
With `CCOC(=O)CCc1ccc(C2COc3c(C)c(C)c(NC(=O)CC(C)(C)C)c(C)c32)cc1` (stereo unspecified), the melting point is 103 to 105 °C.
The result for `CN(C)C=NC1CCN(Cc2ccccc2)CC1` reads 61 to 65 °C; that for `O=C(NCCO[N+](=O)[O-])c1ccc(C2NC(C(=O)O)CS2)cc1` (stereo unspecified), 128 to 130 °C; that for `CCCn1c(-c2ccccc2)nc2cc(C#N)c(C#N)cc21`, 183 to 185 °C.
In turn, `O=C(O)C(Cc1ccccc1)Cn1ccnc1` (racemic) registered a melting point of 159 to 163 °C.
The figure for `Cc1ncccc1Oc1ccc(NC(=O)NCCc2ccccc2)cn1` is 136 to 138 °C; for `O=[N+]([O-])c1ccc2ncnc(Nc3ccc4ncccc4c3)c2c1` it is greater than 300 °C.
The result for `NN=CNc1nc(CSCCN=CNS(=O)(=O)c2ccc(Br)cc2)cs1` reads 107 to 110 °C; that for `CCOc1ccc2c(c1)n(C1CCCCC1)c(=O)n2S(=O)(=O)c1ccc(C(=O)Nc2nccs2)cc1OC`, 213 °C.
As for `CN(CCOc1ccc(CC(SCCN)C(=O)O)cc1)c1nc2ccccc2o1` (stereo unspecified), the melting point was in the range of 200 to 201 °C.
Molecule `O=C(Nc1ccc(O)cc1)OCC(Cl)(Cl)Cl` returned a melting point of 134 °C.
As for `CC(C)n1cc(Nc2nc(-c3ccc4cn[nH]c4c3)cn3ccnc23)cn1`, the melting point was greater than 250 °C.
The result for `COC12CC(CO)CN(C)C1Cc1cn(C(C)(C)C)c3cccc2c13` (stereo unspecified) reads 172 to 174 °C; that for `CCOC(=O)c1cc(C(=O)OCC)c(=O)[nH]c1C`, 195 to 197 °C.
The result for `CC1Cc2c(N3C(=O)C4=C(CCCC4)C3=O)ccc(Cl)c2O1` (stereo unspecified) reads 134 to 137 °C; that for `Cc1cc(C#CCc2ccc3c(c2)C(C)(C)CCC3(C)C)ccc1C(=O)O`, 149 to 150 °C; that for `Cc1ncc2ccc(-c3cccs3)nc2n1`, 175 to 180 °C.
Molecule `N#Cc1ccc(CCc2ccc(OCc3ccc4ccccc4n3)cc2)cc1` displayed a melting point of 156 to 158 °C.
The figure for `Cc1ccc(S(=O)(=O)Nc2ccccc2)cc1` is 96 to 98 °C; for `Nc1ccccc1NC(=O)/C=C/c1ccccc1I` it is 194 to 196 °C.
The result for `Cc1nc(N2CCN(CC(C)C)C2=O)sc1C(=O)NCc1cocn1` reads 115 to 118 °C; that for `CCN(CC)C(=O)Nc1ccc(S(=O)(=O)N2C(=O)C(C)(c3cc(C(=O)NCc4cccnc4)ccc3Cl)c3cc(Cl)ccc32)c(OC)c1` (stereo unspecified), 148 °C; that for `Cc1cccc(NC(=O)C=Cc2cn(C)nc2[N+](=O)[O-])n1`, 191 to 193 °C.
The result for `CC(=O)OC1CSC(Oc2cc(-c3ccncc3)cnc2F)C(OC(C)=O)C1OC(C)=O` (stereo unspecified) reads 143 to 144 °C; that for `Cc1cc2c(cc1C(=O)c1ccc(C(=O)O)cc1)C1(C)C3(C)CCC(C3)C1(C)O2` (stereo unspecified), 238 to 239 °C.
As for `CSc1nn2c(Cl)cc(C)nc2c1S(=O)(=O)c1ccc(C)cc1`, the melting point was in the range of 197 to 198 °C.
The result for `CN1C(=O)C(C)(C)N=C(c2ccccc2F)c2cc(N)cc(Cl)c21` reads 169 to 172 °C; that for `Nc1c(Cl)cc(Nc2ncnc3cnc(N[C@H]4CC[C@H](C(=O)O)CC4)nc23)cc1Cl`, 339 °C.
The result for `CC(O)c1cc(S(N)(=O)=O)sc1Sc1ccc(O)cc1` (stereo unspecified) reads 133 to 137 °C; that for `Cc1oc2nc3c(c(NC(=O)C(C)C)c2c1C)CCCC3`, 245 to 246 °C.
The figure for `COC(=O)c1ccccc1C1=NC(C)(C(C)C)C(=O)N1O` (stereo unspecified) is 146 to 150 °C; for `CN1C=C(C(=O)Nc2ccccc2)C(C(F)(F)F)N1CO` (stereo unspecified) it is 191 °C; for `COc1ccc([C@@H]2c3ccccc3C[C@@H]3CC(=O)NCCN32)cc1` (racemic) it is 196 to 198 °C.
`Cc1cc(F)ccc1Nc1nc(N(C)c2ccccc2)c2cc(OCCCN(C)C)ccc2n1` showed a melting point of 103 to 104 °C.
Consider `CCOC(=O)CNc1ccc2ncccc2c1`, for which the melting point was 122 to 123 °C.
The result for `NS(=O)(=O)c1ccc(-c2cccc(-c3nc(-c4ccc(F)c(F)c4)cc(C(F)(F)F)n3)c2)s1` reads 238 °C; that for `N[C@@H](CSCCC1CCN(C(=O)OCc2ccccc2)CC1)C(=O)O`, 185 to 188 °C.
With `CN1C(=O)CN=C(c2ccccc2F)c2c1ccc(NC(=O)NCCO)c2Cl`, the melting point fell in the range of 150 to 153 °C.
Turning to `CN(C=O)CNC(=O)c1cc(Cl)nc(Cl)c1`, the melting point was in the range of 150 to 155 °C.
Turning to `O=C1C(=CNCCO)Cc2c(Cl)cccc21`, the melting point lay in the range of 164 to 166 °C.
`COc1cc(CC(=O)C(CNCCOc2ccc(C(=O)O)cc2OC)NC2CC2)ccc1NC(=O)Nc1ccccc1C` (stereo unspecified) gave a melting point of 135 to 140 °C.
The result for `N#Cc1c[nH]c(C(F)(F)F)c1-c1ccc(Cl)cc1` reads 114 to 115 °C; that for `O=C1c2ccccc2-c2c1c(Cl)nc1cc(OCc3ccccc3)ccc21`, 212 to 214 °C.
The result for `CC(C)c1nc(-c2ncn3c2[C@@H]2CCCN2C(=O)c2c(Cl)cccc2-3)no1` reads 195 to 196 °C.
The result for `Cn1cc(C(=O)C(=O)NC2=CC(=O)OC2)c2ccccc21` reads 262 to 264 °C; that for `O=Cc1cccc2oc3c(c12)CCCC3`, 55 to 57 °C; that for `Cc1cccc(-c2nnc(Nc3ccc(Br)c(Cl)c3)s2)c1`, 230 to 231 °C.
For the molecule `COc1ccc(C2=NN(c3ccc(-c4nnn(Cc5ccccc5)n4)cc3)C(=O)[C@H]3CC=CC[C@@H]23)cc1OC` (relative stereo), the melting point was 100 to 102 °C.
The figure for `O=CNc1nc2ccc([N+](=O)[O-])cc2s1` is 248 to 251 °C; for `COC(=O)C(=NO)C(=O)N1CCC(c2ccc(OC)c(OC3CCCC3)c2)CC1` it is 159 to 160 °C.
The result for `CC(C)(O)[C@H](Cc1ccccc1)NC(=O)C(Cl)(Cl)Cl` reads 88 °C; that for `CNC(=O)c1ccc(C=CC(=O)NCC(=O)N(C)c2ccc(Cl)c(COc3cccc4ccc(C)nc34)c2)cc1`, 221 to 228 °C; that for `NS(=O)(=O)c1cc(C(=O)O)cc(SCc2ccco2)c1Oc1ccccc1`, 214 to 216 °C.
The result for `COc1ccc2cccc(C(CO)CNC(=O)CF)c2c1` (stereo unspecified) reads 49 to 51 °C; that for `CCCCCCCCOC(=O)/C(C#N)=C/C=C/N(C)C`, 80 to 81 °C.
For the molecule `CC(C)[C@H](CC(N)=O)NC(=O)OCc1ccccc1`, the melting point fell in the range of 171 to 172 °C.
As for `O=C(O)c1ccc2sc3ccccc3c(=O)c2c1`, the melting point fell in the range of 310 to 316 °C.
The result for `CCOc1ccc(C(=O)NCCN2CCC(Oc3ccc(Cl)c(Cl)c3)CC2)cc1` reads 118 to 120 °C; that for `Cc1cc(C(=O)NCOCc2cccnc2)ncc1C(c1cc(F)ccc1F)S(=O)(=O)c1ccc(F)cc1` (stereo unspecified), 121 to 123 °C; that for `COc1cc(C(=O)O)ccc1Cc1cn(C)c2ccc(CCNC(=O)N(C)C)cc12`, 195 to 196 °C.
With `Cc1nc2ncnn2c(Cl)c1CCCl`, the melting point lay within 81 to 82 °C.
With `C=CCC(C(=O)NC)c1ccc(F)cc1` (stereo unspecified), the melting point was in the range of 104 to 105 °C.
The figure for `CCCCn1c(=O)cnn(-c2ccc(N3CCN(c4ccc(O)cc4)CC3)cc2)c1=O` is 202 °C; for `O=S1(=O)C=CC(c2ccccc2)(c2ccccc2)CC1` it is 166 °C; for `Cc1ccc(-c2cn(C)cc(-c3cccc(C(F)(F)F)c3)c2=O)cc1` it is 154 to 156 °C.
The result for `Clc1nc2c(c(N[C@@H]3CCC[C@H]3OCc3ccccc3)n1)SCC2` reads 157 to 158 °C; that for `COc1ccc(COCc2nccn2CCO)cc1`, 96 to 98 °C.
The result for `O=[N+]([O-])c1cc(-c2cn3c(n2)sc2ccccc23)cc(O)c1O` reads 303 to 305 °C; that for `N#Cc1ccccc1C#CCOCCn1cnc2c(N)nc3ccccc3c21`, 180 to 183 °C.
`Cc1ccc(-c2c(C(=O)NCc3cc(C(F)(F)F)cc(C(F)(F)F)c3)n(CCCCCO)c(=O)c3ncccc23)cc1` returned a melting point of 136 to 137 °C.
The result for `FC(F)(F)c1cccc(C2=CCNc3ccnn32)c1` reads 61 to 64 °C; that for `CSCCOC(=O)N(C)c1cnc(-c2cncc(F)c2)s1`, 115 to 117 °C.
In the case of `O=C(c1cc(Br)c(OCP(=O)(O)O)c(Br)c1)c1c(Cc2ccccc2)sc2ccccc12`, the melting point lay in the range of 210 to 212 °C.
`Cc1nccn1-c1nc(-c2ccc(Cl)cc2)c(CCC(N)=O)o1` had a melting point of 215 to 216 °C.
As to `Nc1cc(Cl)nc(Cl)c1[N+](=O)[O-]`, the melting point was in the range of 136 to 138 °C.
`Cc1noc(C)c1COc1ccc(-c2cc(O)c(SCCc3ccccc3)c(=O)o2)cc1` registered a melting point of 152 to 154 °C.
The figure for `Fc1cccc2c1CN(C1=NCCO1)C2` is 125 to 129 °C.
Regarding `Cn1nc(C(F)(F)C(F)(F)F)cc1O`, the melting point lay in the range of 183 to 188 °C.
The figure for `COC=C(C(=O)OC)c1cnc(C)nc1Oc1cccc(C(F)(F)F)c1` is 100 to 102 °C; for `CC(C)c1sc(-c2ccccc2)c(-c2ccc(F)cc2)c1CO` it is 140 to 143 °C.
The figure for `Cc1ccc(C(=S)c2ccc(Cl)cc2)cc1` is 134 °C; for `CCCCCCCOC(=O)Cc1nc(-c2ccc(Cl)cc2)oc1-c1ccco1` it is 69 to 70 °C; for `COC(=O)c1nn(C)nc1C(=O)O` it is 125 to 126 °C.
The molecule `COC(=O)C#CC(=O)c1cccc(OC)c1` yielded a melting point of 32 to 34 °C.
The figure for `CN1CC(=O)C(C#N)=C1N` is 300 °C; for `CC(C)(C)OC(=O)CN1CCC(C)(N)C1=O` (stereo unspecified) it is 72 to 77 °C; for `Cc1ccc(NC(=O)c2cccc(C(F)(F)F)c2)cc1-c1ccc2ccncc2c1` it is 148 to 152 °C.
As for `O=C1NCCc2cc(F)ccc21`, the melting point was 107 to 108 °C.
